ChEMBL document CHEMBL4038268, “Methylpyrrole inhibitors of BET bromodomains” (Bioorg Med Chem Lett, 2017)

Tests used:
[1] = Oral bioavailability in mouse at 10 mg/kg; assay type: ADME, organism-based; details: in vivo
[2] = biological target: T1, Bromodomain-containing protein 4 (Homo sapiens, UniProt O60885); assay: Binding affinity to His-tagged BRD4 BD1-BD2 (K57 to K550 residues) (unknown origin) after 1 hr by Alexa-647-conjugated probe based TR-FRET assay
[3] = Half life in mouse at 3 mg/kg, iv; assay type: ADME, organism-based; details: in vivo
[4] = tested on: Liver; assay: Unbound intrinsic clearance in mouse liver microsomes; assay type: ADME, microsome
[5] = Permeability of the compound; assay type: physicochemical; details: not told; read-out: permeability
[6] = biological target: T2, Transcription intermediary factor 1-alpha (Homo sapiens, UniProt O15164); assay: Inhibition of human TRIM24-phd-bromo (P790 to P977 residues) expressed in bacterial expression system by BROMOscan assay
T2 sequence (O15164 whole entry): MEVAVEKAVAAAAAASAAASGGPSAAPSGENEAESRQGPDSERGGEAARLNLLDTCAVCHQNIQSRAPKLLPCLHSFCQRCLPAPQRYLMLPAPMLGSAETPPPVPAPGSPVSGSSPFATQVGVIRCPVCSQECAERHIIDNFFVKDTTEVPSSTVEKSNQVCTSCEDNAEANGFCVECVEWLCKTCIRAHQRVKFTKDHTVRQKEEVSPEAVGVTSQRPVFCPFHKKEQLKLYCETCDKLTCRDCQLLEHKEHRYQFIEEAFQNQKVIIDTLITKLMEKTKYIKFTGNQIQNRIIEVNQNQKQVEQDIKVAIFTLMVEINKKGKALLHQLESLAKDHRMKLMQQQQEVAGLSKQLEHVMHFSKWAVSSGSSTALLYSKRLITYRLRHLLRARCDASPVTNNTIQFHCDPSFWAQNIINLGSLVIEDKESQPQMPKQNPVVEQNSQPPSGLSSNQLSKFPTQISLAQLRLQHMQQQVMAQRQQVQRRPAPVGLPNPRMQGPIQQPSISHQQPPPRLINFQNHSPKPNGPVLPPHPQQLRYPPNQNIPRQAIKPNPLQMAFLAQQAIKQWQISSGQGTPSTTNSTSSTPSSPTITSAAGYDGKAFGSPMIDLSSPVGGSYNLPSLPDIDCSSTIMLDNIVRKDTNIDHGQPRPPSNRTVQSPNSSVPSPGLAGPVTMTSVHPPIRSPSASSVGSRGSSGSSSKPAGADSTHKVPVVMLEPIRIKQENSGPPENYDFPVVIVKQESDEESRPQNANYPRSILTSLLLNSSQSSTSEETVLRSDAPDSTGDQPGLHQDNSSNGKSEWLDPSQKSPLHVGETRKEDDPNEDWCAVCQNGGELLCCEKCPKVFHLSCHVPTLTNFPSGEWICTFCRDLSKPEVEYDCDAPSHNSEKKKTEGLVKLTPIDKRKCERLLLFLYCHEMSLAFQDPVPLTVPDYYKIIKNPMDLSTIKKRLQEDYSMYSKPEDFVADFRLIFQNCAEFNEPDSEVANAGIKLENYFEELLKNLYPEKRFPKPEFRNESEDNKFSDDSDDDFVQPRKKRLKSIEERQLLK

[7] = biological target: Bromodomain adjacent to zinc finger domain protein 2A (Homo sapiens, UniProt Q9UIF9); assay: Inhibition of human BAZ2A (M1792 to L1905 residues) expressed in bacterial expression system by BROMOscan assay
[8] = biological target: T3, Bromodomain and PHD finger-containing protein 3 (Homo sapiens, UniProt Q9ULD4); assay: Inhibition of human BRPF3 (E588 to G701 residues) expressed in bacterial expression system by BROMOscan assay
T3 sequence (Q9ULD4 whole entry): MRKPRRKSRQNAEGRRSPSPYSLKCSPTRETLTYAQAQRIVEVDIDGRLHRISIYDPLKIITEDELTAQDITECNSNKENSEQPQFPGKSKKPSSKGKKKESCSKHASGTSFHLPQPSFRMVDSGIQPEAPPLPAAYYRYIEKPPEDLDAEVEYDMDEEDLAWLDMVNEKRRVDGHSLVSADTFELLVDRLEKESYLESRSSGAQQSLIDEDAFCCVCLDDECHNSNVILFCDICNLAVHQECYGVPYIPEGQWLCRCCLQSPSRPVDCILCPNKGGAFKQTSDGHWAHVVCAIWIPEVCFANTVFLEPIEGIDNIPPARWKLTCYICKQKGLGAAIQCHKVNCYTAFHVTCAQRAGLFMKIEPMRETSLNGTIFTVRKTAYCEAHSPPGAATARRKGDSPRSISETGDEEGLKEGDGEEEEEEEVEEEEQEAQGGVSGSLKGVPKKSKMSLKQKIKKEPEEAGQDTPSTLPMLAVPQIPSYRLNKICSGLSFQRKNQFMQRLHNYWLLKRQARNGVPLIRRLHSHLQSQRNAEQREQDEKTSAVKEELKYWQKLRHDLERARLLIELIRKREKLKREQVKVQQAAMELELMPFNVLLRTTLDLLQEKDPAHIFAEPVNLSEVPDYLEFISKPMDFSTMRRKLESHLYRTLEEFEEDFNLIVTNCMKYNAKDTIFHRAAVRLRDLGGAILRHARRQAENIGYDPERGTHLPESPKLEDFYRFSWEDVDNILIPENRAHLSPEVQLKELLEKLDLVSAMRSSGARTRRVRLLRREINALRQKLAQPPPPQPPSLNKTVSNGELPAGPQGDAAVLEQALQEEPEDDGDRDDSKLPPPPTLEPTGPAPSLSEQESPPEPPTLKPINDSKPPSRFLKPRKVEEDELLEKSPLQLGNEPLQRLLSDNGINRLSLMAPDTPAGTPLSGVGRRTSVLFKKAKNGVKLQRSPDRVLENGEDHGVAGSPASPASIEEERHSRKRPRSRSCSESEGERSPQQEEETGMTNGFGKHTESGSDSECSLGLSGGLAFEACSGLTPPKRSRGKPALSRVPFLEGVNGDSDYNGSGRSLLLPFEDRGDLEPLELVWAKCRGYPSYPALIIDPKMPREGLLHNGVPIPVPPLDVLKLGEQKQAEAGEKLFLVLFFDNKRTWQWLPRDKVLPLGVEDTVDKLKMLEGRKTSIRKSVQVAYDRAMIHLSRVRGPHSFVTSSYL

[9] = biological target: Bromodomain and WD repeat-containing protein 1 (Homo sapiens, UniProt Q9NSI6); assay: Inhibition of human WDR9 bromodomain 2 (A1310 to E1430 residues) expressed in bacterial expression system by BROMOscan assay
[10] = biological target: T1, Bromodomain-containing protein 4; assay: Binding affinity to BRD4 BD2 (E352 to M457 residues) (unknown origin) expressed in Escherichia coli BL21 (DE3) after 1 hr by Alexa-647-conjugated probe based TR-FRET assay
[11] = biological target: Bromodomain testis-specific protein (Homo sapiens, UniProt Q58F21); assay: Binding affinity to BRDT BD1-BD2 (N21 to P380 residues) (unknown origin) after 1 hr by Alexa-647-conjugated probe based TR-FRET assay

Bromodomain adjacent to zinc finger domain protein 2A, sequence (Q9UIF9 whole entry, the tested form may be a part): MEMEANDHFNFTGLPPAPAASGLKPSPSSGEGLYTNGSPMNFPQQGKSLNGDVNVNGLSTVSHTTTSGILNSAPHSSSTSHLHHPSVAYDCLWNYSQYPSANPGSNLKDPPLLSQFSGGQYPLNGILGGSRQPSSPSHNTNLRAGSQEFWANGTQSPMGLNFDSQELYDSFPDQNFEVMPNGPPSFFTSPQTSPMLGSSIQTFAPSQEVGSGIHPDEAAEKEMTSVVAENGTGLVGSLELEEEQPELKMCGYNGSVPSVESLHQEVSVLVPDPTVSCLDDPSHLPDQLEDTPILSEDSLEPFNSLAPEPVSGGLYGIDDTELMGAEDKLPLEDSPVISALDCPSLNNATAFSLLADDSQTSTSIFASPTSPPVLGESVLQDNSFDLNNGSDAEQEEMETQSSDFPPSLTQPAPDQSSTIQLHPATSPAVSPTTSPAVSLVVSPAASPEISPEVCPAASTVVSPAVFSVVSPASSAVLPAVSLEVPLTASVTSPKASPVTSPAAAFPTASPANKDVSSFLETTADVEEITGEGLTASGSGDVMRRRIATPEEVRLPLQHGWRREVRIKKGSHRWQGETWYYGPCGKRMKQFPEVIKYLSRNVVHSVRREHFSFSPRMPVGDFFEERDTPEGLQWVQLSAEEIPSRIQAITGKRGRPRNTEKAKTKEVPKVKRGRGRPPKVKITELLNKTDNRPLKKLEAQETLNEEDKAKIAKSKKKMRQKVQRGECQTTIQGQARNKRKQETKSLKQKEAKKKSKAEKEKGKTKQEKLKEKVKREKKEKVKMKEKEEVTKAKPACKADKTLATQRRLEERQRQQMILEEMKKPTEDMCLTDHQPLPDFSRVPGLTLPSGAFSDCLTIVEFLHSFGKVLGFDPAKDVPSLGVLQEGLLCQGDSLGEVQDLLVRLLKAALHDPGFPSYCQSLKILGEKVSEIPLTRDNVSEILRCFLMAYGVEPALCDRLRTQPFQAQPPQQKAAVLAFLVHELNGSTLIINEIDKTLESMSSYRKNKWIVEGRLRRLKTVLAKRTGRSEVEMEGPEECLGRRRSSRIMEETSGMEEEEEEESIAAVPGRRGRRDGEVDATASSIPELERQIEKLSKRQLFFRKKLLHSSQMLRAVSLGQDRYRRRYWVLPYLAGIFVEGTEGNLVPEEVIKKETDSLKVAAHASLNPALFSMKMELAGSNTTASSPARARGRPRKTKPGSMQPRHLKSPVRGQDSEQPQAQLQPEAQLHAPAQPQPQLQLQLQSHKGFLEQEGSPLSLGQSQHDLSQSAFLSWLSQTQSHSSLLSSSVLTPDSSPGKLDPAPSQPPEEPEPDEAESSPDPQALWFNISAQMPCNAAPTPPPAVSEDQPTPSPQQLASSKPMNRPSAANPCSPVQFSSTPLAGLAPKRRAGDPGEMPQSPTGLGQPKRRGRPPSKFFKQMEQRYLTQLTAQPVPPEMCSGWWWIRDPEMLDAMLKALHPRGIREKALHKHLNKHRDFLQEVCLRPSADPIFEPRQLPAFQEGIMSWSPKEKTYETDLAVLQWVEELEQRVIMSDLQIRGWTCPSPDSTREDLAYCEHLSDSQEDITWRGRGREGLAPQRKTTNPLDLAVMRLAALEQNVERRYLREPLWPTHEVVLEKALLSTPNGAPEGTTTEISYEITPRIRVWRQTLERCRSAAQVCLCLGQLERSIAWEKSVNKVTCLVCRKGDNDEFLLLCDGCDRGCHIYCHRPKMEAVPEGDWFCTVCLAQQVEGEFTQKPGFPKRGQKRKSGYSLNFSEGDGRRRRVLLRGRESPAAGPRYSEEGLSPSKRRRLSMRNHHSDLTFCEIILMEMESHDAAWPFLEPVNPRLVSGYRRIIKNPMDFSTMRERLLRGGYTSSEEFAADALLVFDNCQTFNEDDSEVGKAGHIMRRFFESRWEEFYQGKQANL
Bromodomain and WD repeat-containing protein 1, sequence (Q9NSI6 whole entry, the tested form may be a part): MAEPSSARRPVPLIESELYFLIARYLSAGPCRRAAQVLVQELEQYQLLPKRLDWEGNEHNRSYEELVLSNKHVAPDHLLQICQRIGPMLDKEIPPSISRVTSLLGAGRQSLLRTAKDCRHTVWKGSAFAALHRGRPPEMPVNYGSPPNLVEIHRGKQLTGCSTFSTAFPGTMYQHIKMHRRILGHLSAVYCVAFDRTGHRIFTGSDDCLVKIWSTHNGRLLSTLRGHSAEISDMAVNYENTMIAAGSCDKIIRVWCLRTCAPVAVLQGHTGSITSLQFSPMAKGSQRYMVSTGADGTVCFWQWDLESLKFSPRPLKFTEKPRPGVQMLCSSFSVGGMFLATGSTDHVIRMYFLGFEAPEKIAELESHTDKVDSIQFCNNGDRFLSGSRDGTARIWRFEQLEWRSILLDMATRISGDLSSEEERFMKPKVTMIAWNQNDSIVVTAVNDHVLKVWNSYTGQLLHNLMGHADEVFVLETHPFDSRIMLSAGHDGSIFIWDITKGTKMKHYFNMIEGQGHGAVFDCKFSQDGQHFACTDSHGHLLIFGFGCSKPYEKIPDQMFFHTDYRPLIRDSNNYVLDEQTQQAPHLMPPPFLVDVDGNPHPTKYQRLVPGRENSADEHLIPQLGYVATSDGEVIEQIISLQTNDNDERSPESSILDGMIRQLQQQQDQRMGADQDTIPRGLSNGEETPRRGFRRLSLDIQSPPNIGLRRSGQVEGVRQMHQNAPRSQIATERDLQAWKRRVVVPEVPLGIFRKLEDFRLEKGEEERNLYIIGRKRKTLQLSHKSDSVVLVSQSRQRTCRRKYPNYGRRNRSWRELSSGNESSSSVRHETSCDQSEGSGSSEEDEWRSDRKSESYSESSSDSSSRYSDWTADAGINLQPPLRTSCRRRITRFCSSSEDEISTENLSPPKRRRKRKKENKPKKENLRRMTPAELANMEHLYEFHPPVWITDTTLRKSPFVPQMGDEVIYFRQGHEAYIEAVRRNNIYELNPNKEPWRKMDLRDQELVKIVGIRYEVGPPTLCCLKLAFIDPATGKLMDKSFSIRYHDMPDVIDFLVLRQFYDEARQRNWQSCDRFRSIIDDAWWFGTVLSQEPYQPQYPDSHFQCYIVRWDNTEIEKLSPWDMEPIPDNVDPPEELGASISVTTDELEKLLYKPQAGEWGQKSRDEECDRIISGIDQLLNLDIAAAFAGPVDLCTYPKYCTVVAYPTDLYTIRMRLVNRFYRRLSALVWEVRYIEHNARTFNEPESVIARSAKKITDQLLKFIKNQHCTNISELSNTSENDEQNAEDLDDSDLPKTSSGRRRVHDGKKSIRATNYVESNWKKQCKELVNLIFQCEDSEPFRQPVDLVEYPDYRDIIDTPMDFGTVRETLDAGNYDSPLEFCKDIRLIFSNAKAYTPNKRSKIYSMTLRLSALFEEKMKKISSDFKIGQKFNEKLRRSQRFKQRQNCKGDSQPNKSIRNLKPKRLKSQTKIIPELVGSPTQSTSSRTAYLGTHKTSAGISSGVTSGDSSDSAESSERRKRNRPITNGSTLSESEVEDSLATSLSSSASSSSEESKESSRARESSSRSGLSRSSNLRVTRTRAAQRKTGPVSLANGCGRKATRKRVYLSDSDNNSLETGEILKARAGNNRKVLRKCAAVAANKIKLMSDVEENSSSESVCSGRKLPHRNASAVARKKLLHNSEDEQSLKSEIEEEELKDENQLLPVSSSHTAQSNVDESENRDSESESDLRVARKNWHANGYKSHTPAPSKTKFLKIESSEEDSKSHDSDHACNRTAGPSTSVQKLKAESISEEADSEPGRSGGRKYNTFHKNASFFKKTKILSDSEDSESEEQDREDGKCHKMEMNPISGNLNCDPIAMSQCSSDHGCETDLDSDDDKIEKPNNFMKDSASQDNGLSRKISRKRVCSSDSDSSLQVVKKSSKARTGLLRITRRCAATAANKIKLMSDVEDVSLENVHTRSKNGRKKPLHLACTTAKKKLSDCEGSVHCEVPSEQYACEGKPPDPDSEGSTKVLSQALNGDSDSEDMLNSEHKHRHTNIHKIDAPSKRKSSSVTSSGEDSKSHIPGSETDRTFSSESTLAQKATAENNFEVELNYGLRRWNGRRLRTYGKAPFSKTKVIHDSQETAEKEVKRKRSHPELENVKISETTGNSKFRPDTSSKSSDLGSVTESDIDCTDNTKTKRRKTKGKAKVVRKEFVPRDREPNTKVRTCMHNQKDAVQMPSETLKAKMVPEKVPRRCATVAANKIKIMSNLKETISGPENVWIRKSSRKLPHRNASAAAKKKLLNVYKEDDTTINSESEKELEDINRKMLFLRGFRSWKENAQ

Row | bioavailability [1] | Ki [2] | half-life [3] | CL free [4] | Papp [5] | IC50 [6] | IC50 [7] | IC50 [8] | IC50 [9] | Ki [10] | Ki [11] | Compound
1 | 32% | 0.3 µM | 1.3 h | < 115 mL/min/kg | 22 ×10⁻⁶ cm/s | > 10 µM | > 10 µM | > 10 µM | > 10 µM | 0.038 µM | 0.14 µM | Cc1[nH]c(-c2cc(S(C)(=O)=O)ccc2Oc2ccc(F)cc2F)c2c1C(=O)NCC2
2 | 57% | 0.098 µM | 2.5 h | 200 mL/min/kg | 35 ×10⁻⁶ cm/s | 10 µM | 10 µM | > 10 µM | > 10 µM | 0.28 µM | 0.49 µM | Cn1cc(-c2cc(S(C)(=O)=O)ccc2Oc2ccc(F)cc2F)c2cc[nH]c(=O)c21

Row | Compound | bioavailability [1] | Ki [2] | half-life [3] | CL free [4] | Papp [5] | IC50 [6] | IC50 [7] | IC50 [8] | IC50 [9] | Ki [10] | Ki [11]
3 | Cc1[nH]c(-c2cc(NS(C)(=O)=O)ccc2Oc2ccccc2)c2c1C(=O)CCC2 | 30% | 0.033 µM | 0.6 h | 917 mL/min/kg | 27 ×10⁻⁶ cm/s | > 10 µM | 10 µM | > 10 µM | 10 µM | 0.038 µM | 0.11 µM
